According to the NIST ThermoML archive (doi:10.1021/acs.jced.9b00171):

Assays:
[1] = wn = mass fraction of the nth substance listed; conditions: 101.3 kPa, Liquid, Oscillating disk viscometry
[2] = refractive index (Na D-line) (dimensionless); wn = mass fraction of the nth substance listed; conditions: 101.3 kPa, Liquid, Standard Abbe refractometry

CNCCO [2-(methylamino)ethanol] + O
Conditions | refractive index, [2] | viscosity, [1] [mPa·s]
293.15 K, w1 = 0.05 | 1.3421 | 1.31
293.15 K, w1 = 0.1 | 1.3452 | 1.68
293.15 K, w1 = 0.15 | 1.3484 | 2.38
293.15 K, w1 = 0.2 | 1.3522 | 2.66
293.15 K, w1 = 0.25 | 1.3568 | 3.4
293.15 K, w1 = 0.3 | 1.3624 | 4.22
298.15 K, w1 = 0.05 | 1.3414 | 1.1
298.15 K, w1 = 0.1 | 1.3444 | 1.42
298.15 K, w1 = 0.15 | 1.3476 | 2.02
298.15 K, w1 = 0.2 | 1.3513 | 2.17
298.15 K, w1 = 0.25 | 1.3558 | 2.74
298.15 K, w1 = 0.3 | 1.3614 | 3.52
303.15 K, w1 = 0.05 | 1.3405 | 0.99
303.15 K, w1 = 0.1 | 1.3435 | 1.22
303.15 K, w1 = 0.15 | 1.3467 | 1.74
303.15 K, w1 = 0.2 | 1.3502 | 1.83
303.15 K, w1 = 0.25 | 1.3547 | 2.32
303.15 K, w1 = 0.3 | 1.3602 | 2.96
308.15 K, w1 = 0.05 | 1.3396 | 0.88
308.15 K, w1 = 0.1 | 1.3426 | 1.05
308.15 K, w1 = 0.15 | 1.3456 | 1.42
308.15 K, w1 = 0.2 | 1.349 | 1.52
308.15 K, w1 = 0.25 | 1.3534 | 1.96
308.15 K, w1 = 0.3 | 1.3588 | 2.52
313.15 K, w1 = 0.05 | 1.3386 | 0.79
313.15 K, w1 = 0.1 | 1.3416 | 0.94
313.15 K, w1 = 0.15 | 1.3445 | 1.22
313.15 K, w1 = 0.2 | 1.3478 | 1.32
313.15 K, w1 = 0.25 | 1.352 | 1.71
313.15 K, w1 = 0.3 | 1.3573 | 2.2
318.15 K, w1 = 0.05 | 1.3375 | 0.72
318.15 K, w1 = 0.1 | 1.3405 | 0.84
318.15 K, w1 = 0.15 | 1.3434 | 1.04
318.15 K, w1 = 0.2 | 1.3465 | 1.19
318.15 K, w1 = 0.25 | 1.3505 | 1.49
318.15 K, w1 = 0.3 | 1.3558 | 1.92
323.15 K, w1 = 0.05 | 1.3364 | 0.65
323.15 K, w1 = 0.1 | 1.3394 | 0.75
323.15 K, w1 = 0.15 | 1.3421 | 0.93
323.15 K, w1 = 0.2 | 1.3451 | 1.06
323.15 K, w1 = 0.25 | 1.349 | 1.29
323.15 K, w1 = 0.3 | 1.3542 | 1.65
328.15 K, w1 = 0.05 | 1.3352 | 0.58
328.15 K, w1 = 0.1 | 1.3381 | 0.67
328.15 K, w1 = 0.15 | 1.3406 | 0.83
328.15 K, w1 = 0.2 | 1.3436 | 0.94
328.15 K, w1 = 0.25 | 1.3474 | 1.12
328.15 K, w1 = 0.3 | 1.3524 | 1.41
333.15 K, w1 = 0.05 | 1.334 | 0.52
333.15 K, w1 = 0.1 | 1.3368 | 0.6
333.15 K, w1 = 0.15 | 1.3391 | 0.74
333.15 K, w1 = 0.2 | 1.342 | 0.83
333.15 K, w1 = 0.25 | 1.3456 | 0.99
333.15 K, w1 = 0.3 | 1.3504 | 1.2

NCCNCCO [N-(2-aminoethyl)ethanolamine] + O
Conditions | refractive index, [2] | viscosity, [1] [mPa·s]
293.15 K, w1 = 0.05 | 1.3406 | 1.2
293.15 K, w1 = 0.1 | 1.3452 | 1.6
293.15 K, w1 = 0.15 | 1.351 | 2.02
293.15 K, w1 = 0.2 | 1.3582 | 2.58
293.15 K, w1 = 0.25 | 1.366 | 3.47
293.15 K, w1 = 0.3 | 1.3752 | 4.73
298.15 K, w1 = 0.05 | 1.3401 | 1.11
298.15 K, w1 = 0.1 | 1.3446 | 1.36
298.15 K, w1 = 0.15 | 1.3504 | 1.74
298.15 K, w1 = 0.2 | 1.3575 | 2.22
298.15 K, w1 = 0.25 | 1.3652 | 2.98
298.15 K, w1 = 0.3 | 1.3744 | 3.95
303.15 K, w1 = 0.05 | 1.3394 | 0.95
303.15 K, w1 = 0.1 | 1.3438 | 1.18
303.15 K, w1 = 0.15 | 1.3496 | 1.48
303.15 K, w1 = 0.2 | 1.3567 | 1.89
303.15 K, w1 = 0.25 | 1.3643 | 2.37
303.15 K, w1 = 0.3 | 1.3735 | 3.32
308.15 K, w1 = 0.05 | 1.3387 | 0.85
308.15 K, w1 = 0.1 | 1.343 | 1.06
308.15 K, w1 = 0.15 | 1.3487 | 1.32
308.15 K, w1 = 0.2 | 1.3558 | 1.63
308.15 K, w1 = 0.25 | 1.3633 | 2.08
308.15 K, w1 = 0.3 | 1.3724 | 2.61
313.15 K, w1 = 0.05 | 1.3378 | 0.76
313.15 K, w1 = 0.1 | 1.3421 | 0.94
313.15 K, w1 = 0.15 | 1.3476 | 1.17
313.15 K, w1 = 0.2 | 1.3548 | 1.41
313.15 K, w1 = 0.25 | 1.3622 | 1.76
313.15 K, w1 = 0.3 | 1.3712 | 2.19
318.15 K, w1 = 0.05 | 1.3368 | 0.69
318.15 K, w1 = 0.1 | 1.341 | 0.84
318.15 K, w1 = 0.15 | 1.3464 | 1.03
318.15 K, w1 = 0.2 | 1.3536 | 1.24
318.15 K, w1 = 0.25 | 1.361 | 1.53
318.15 K, w1 = 0.3 | 1.3698 | 1.86
323.15 K, w1 = 0.05 | 1.3358 | 0.64
323.15 K, w1 = 0.1 | 1.3398 | 0.77
323.15 K, w1 = 0.15 | 1.3451 | 0.92
323.15 K, w1 = 0.2 | 1.3523 | 1.08
323.15 K, w1 = 0.25 | 1.3597 | 1.28
323.15 K, w1 = 0.3 | 1.3682 | 1.59
328.15 K, w1 = 0.05 | 1.3347 | 0.59
328.15 K, w1 = 0.1 | 1.3385 | 0.7
328.15 K, w1 = 0.15 | 1.3436 | 0.82
328.15 K, w1 = 0.2 | 1.3508 | 0.95
328.15 K, w1 = 0.25 | 1.3582 | 1.11
328.15 K, w1 = 0.3 | 1.3664 | 1.35
333.15 K, w1 = 0.05 | 1.3335 | 0.55
333.15 K, w1 = 0.1 | 1.3371 | 0.64
333.15 K, w1 = 0.15 | 1.342 | 0.74
333.15 K, w1 = 0.2 | 1.3491 | 0.87
333.15 K, w1 = 0.25 | 1.3566 | 1.02
333.15 K, w1 = 0.3 | 1.3648 | 1.2
